Assay results published in US20120277180A1, “Cofactors and Methods for Use for Individuals” (VITAPATH GENETICS, INC, priority 2009, published 2012).
Residue numbers refer to the chain shown, from its start. Names and notes keep the numbering of the source. “Also recorded” adds a separate entry of the source. Read-outs that look alike come from different tables or passages of the source.

Experiments:
human MTHFR [1] = target: T1, human MTHFR (Homo sapiens, UniProt P42898); test: In vivo yeast complementation growth assay: MTHFR alleles in fol3 met13 haploid yeast, growth without methionine with titrated folinic acid; assay type: cell-based; settings: folinic acid above 50 ug/ml; fol3 met13 cells
T1 construct: expressed in transfected cells; host or cells: Saccharomyces cerevisiae fol3Δ::KanMX met13Δ::KanMX (S288c background), GAL1 promoter
T1 sequence (P42898 whole entry): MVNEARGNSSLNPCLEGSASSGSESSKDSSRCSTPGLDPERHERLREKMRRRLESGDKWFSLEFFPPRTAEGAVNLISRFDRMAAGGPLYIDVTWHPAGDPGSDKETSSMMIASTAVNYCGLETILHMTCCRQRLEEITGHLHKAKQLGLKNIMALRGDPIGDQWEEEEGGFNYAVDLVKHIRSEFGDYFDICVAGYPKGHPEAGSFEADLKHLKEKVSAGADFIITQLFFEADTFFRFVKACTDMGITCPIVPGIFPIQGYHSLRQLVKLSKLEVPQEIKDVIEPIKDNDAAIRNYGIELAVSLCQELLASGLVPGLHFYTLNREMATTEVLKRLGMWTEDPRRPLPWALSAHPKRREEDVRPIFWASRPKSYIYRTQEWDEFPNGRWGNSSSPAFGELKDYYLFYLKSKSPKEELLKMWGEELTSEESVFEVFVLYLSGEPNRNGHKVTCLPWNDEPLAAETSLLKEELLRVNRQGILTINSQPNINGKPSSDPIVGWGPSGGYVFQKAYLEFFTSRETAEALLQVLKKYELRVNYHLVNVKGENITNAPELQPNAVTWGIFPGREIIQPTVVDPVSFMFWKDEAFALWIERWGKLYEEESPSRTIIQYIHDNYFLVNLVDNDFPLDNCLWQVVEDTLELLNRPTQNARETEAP

[2] = system: fol3Δ::KanMX MET13 haploid yeast; assay type: cell-based, S. cerevisiae; settings: for Effect of folinic acid supplementation on growth: fol3Δ MET13 cells
[3] = upper level of intake considered safe for adults; cited from earlier work
human MTHFR [4] = test: In vivo yeast complementation growth assay: MTHFR alleles in fol3 met13 haploid yeast, growth without methionine with titrated folinic acid; assay type: cell-based; settings: for Functional impact / folate-responsiveness of MTHFR allele (growth in the absence of methionine): over a range of folinic acid concentrations, relative to the major allele; for Interaction of substitutions in compound (double-substitution) alleles with A222V: growth at 50 and 25 ug/ml folinic acid
human MTHFR [5] = test: Thermolability of MTHFR variants (heat treatment at 55° C. before enzyme assay); assay type: biochemical
Description: MTHFR enzyme activity assay. The assay, which measures the reverse reaction of that catalyzed by MTHFR under physiological conditions, was as described (Shan et al, 1999, supra) with the following modifications: Yeast extracts were created by bead lysis of 40 CD595 cell equivalents (fol3Δ met13Δ cells supplemented with folinic acid and methionine as above) in 350 ul of Lysis Buffer (100 mM Sucrose, 50 mM KHPO4 (pH 6.3), protease inhibitor cocktail). Extracts were clarified by a brief microcentrifugation, and 10-200 ug of extract used to determine the linear range of activity. Radiolabeled substrate (5-[^14C]MeTHF) was from GE Healthcare Life Sciences. For heat treatment, the reaction mixes without 5-[^14C]MeTHF were heated to 55° C. for the indicated times at which point 5-[^14C]MeTHF was added back and the reaction proceeded.
In addition to measuring specific activity, variants were tested for thermolability (a measure of enzyme stability) by heat treatment at 55° C. for various times.

human CBS = test: Yeast complementation assay for CBS as a function of pyridoxine (cys4, sno/snz sextuple-delete strain); assay type: cell-based; settings: qualitative growth on solid media

## 5-formyl-tetrahydrofolate [folinic acid]
Human MTHFR [1]
  Effect of folinic acid supplementation on growth of cells expressing the major human MTHFR allele: did not confer a significant growth advantage
[2]; fol3Δ cells vs FOL3 cells
  Folinic acid supplementation compared to growth of FOL3 cells: did not completely compensate for lack of endogenous folate biosynthesis
[2]; folinic acid above 50 ug/ml
  Effect of folinic acid supplementation on growth: did not confer any significant growth advantage
[2]; folinic acid below 50 ug/ml
  Effect of folinic acid supplementation on growth: growth clearly correlated with available folinic acid in the medium

## C[N+](C)(C)CCO [Choline]
[3]
  UL (Upper Limit): 3500 mg

## O=C(O)c1cccnc1 [Niacin]
[3]
  UL (Upper Limit): 35 mg

## O=C1O[C@H]([C@@H](O)CO)C(O)=C1O [Vitamin C]
[3]
  UL (Upper Limit): 2000 mg

## A222V: common functionally impaired human MTHFR variant, catalytic domain substitution A222V
Human MTHFR [4]
  Functional impact / folate-responsiveness of MTHFR allele (growth in the absence of methionine): folate-remedial behavior
Human MTHFR [5]
  Thermolability: lost nearly all activity

## D223N: novel low-frequency human MTHFR variant, catalytic domain substitution D223N
Human MTHFR [4]
  Functional impact / folate-responsiveness of MTHFR allele (growth in the absence of methionine): folate-remedial activity similar to A222V (though less severely impaired); also recorded: folate-remedial behavior
Human MTHFR [5]
  Thermolability: increased thermolability

## D291N: low-frequency human MTHFR variant, catalytic domain substitution D291N
Human MTHFR [4]
  Interaction of substitutions in compound (double-substitution) alleles with A222V: synergized when combined with A222V
  Functional impact / folate-responsiveness of MTHFR allele (growth in the absence of methionine): folate-remedial behavior

## H213R: low-frequency human MTHFR variant, catalytic domain substitution H213R
Human MTHFR [4]
  Functional impact / folate-responsiveness of MTHFR allele (growth in the absence of methionine): benign

## M110I A222V: doubly-substituted compound human MTHFR allele
Human MTHFR [4]
  Interaction of substitutions in compound (double-substitution) alleles with A222V: functioned more poorly than the sum of the individual alleles

## M110I: low-frequency human MTHFR variant, catalytic domain substitution M110I
Human MTHFR [4]; 50 ug/ml folinic acid
  MTHFR function (growth) relative to the major allele: nearly indistinguishable from the major allele
Human MTHFR [4]
  Interaction of substitutions in compound (double-substitution) alleles with A222V: synergized when combined with A222V
  Functional impact / folate-responsiveness of MTHFR allele (growth in the absence of methionine): folate-remedial behavior
Human MTHFR [4]; listed as MilOl
  Functional impact / folate-responsiveness of MTHFR allele (growth in the absence of methionine): folate-remedial activity similar to A222V (though less severely impaired)

## R134C: low-frequency human MTHFR variant, catalytic domain substitution R134C
Human MTHFR [4]
  Functional impact / folate-responsiveness of MTHFR allele (growth in the absence of methionine): severely impaired at all folate concentrations; also recorded: responsive, but not a remedial allele; also recorded: nearly loss-of-function

## R519C: low-frequency human MTHFR variant, regulatory domain substitution R519C
Human MTHFR [4]
  Functional impact / folate-responsiveness of MTHFR allele (growth in the absence of methionine): benign

## Vitamin B-6
[3]
  UL (Upper Limit): 100 mg

## major allele: most common human MTHFR allele in the population, expressed in yeast
Human MTHFR [4]
  Functional impact / folate-responsiveness of MTHFR allele (growth in the absence of methionine): did not completely compensate for loss of Met13p

B1: 1278T: homocystinuria allele of human CBS, vitamin B6-responsive (protein, UniProt P35520 1-551, looked up, variant I278T)
Cystathionine beta-synthase: MPSETPQAEVGPTGCPHRSGPHSAKGSLEKGSPEDKEAKEPLWIRPDAPSRCTWQLGRPASESPHHHTAPAKSPKILPDILKKIGDTPMVRINKIGKKFGLKCELLAKCEFFNAGGSVKDRISLRMIEDAERDGTLKPGDTIIEPTSGNTGIGLALAAAVRGYRCIIVMPEKMSSEKVDVLRALGAEIVRTPTNARFDSPESHVGVAWRLKNEIPNSHILDQYRNASNPLAHYDTTADEILQQCDGKLDMLVASVGTGGTITGIARKLKEKCPGCRITGVDPEGSILAEPEELNQTEQTTYEVEGIGYDFIPTVLDRTVVDKWFKSNDEEAFTFARMLIAQEGLLCGGSAGSTVAVAVKAAQELQEGQRCVVILPDSVRNYMTKFLSDRWMLQKGFLKEEDLTEKKPWWWHLRVQELGLSAPLTVLPTITCGHTIEILREKGFDQAPVVDEAGVILGMVTLGNMLSSLLAGKVQPSDQVGKVIYKQFKQIRLTDTLGRLSHILEMDHFALVVHEQIQYHSTGKSSQRQMVFGVVTAIDLLNFVAAQERDQK
Human CBS
  Rescue of cys4 yeast growth defect as a function of pyridoxine supplementation: more sensitive than the wild-type enzyme to limiting B6 levels

B2: R266K: homocystinuria allele of human CBS, vitamin B6-responsive (protein, UniProt P35520 1-551, looked up, variant R266K)
Cystathionine beta-synthase: B1 Cystathionine beta-synthase with R266K, T278I
Human CBS
  Rescue of cys4 yeast growth defect as a function of pyridoxine supplementation: more sensitive than the wild-type enzyme to limiting B6 levels
